# Measured values: US20120308554A1, “VEGF-D/VEGFR2/3-MEDIATED REGULATION OF DENDRITES” (UNIVERSITAT HEIDELBERG, priority 2011, published 2012)
# Read-outs that look alike come from different tables or passages of the source.
# Experiments:
# Type in all cases: cell-based, mice
# hippocampal neurons = test: Morphometric analyses (total dendritic length, Sholl analysis, spine density) of cultured hippocampal neurons; conditions: for total dendritic length and dendritic complexity (Sholl analysis): neurons expressing the construct versus control constructs; for rescue of reduction in dendrite length and complexity caused by CaMBP4 or CaMKIVK75E: recombinant factors 100 ng/ml for 3 days, or VEGFD-HA expression
# Procedure: Hippocampal neurons from newborn C57BL/6 mice were cultured as known in the art. Experiments were done after a culturing period of 10 to 14 days in vitro (DIV). DNA transfection was done on DIV8 using Lipofectamine 2000 (Invitrogen, San Diego, Calif.). For the studies on dendrite morphology, neurons were analyzed 4-5 days after transfection.
# For 3D Sholl Analysis, total dendritic length and spine morphology were calculated using Object-Image freeware software with a specific set of macros (written by Dr. E. Ruthazer, McGill University, Quebec). Briefly, a z-Stack acquisition was imported, calibrated in Object-Image and manually traced. Total dendritic length was then computed. For Sholl analysis, the shell interval was set at 5 μm. All analyses were performed blind. In all in vitro experiments, for each condition, a minimum of 12 neurons from three independent preparations was analyzed. For the Golgi staining quantifications of 20 neurons for each condition from 4 different injected animals per viral construct were traced and analyzed.
# Hippocampal neurons were fixed with 4% paraformaldehyde at room temperature for 20 min. For immunostaining, primary and secondary antibodies were applied in GDB buffer (30 mM phosphate buffer [pH7.4] containing 0.2% gelatin, 0.5% Triton X-100, and 0.9 M NaCl). For the morphometric analyses, fluorescence images were acquired using a confocal laser-scanning microscope TCS SP2 (Leica, Mannheim, Germany) equipped with an inverted fluorescence microscope DM IRE2 (Leica) and Leica confocal scan software. All images were obtained with sequential acquisition setting at a resolution of 1024×1024 pixels. Each image was a z series projection of images taken at 1 μm intervals.
# [1] = system: cultured hippocampal neurons; test: Whole-cell patch clamp recordings of cultured hippocampal neurons
# Source text: Whole-cell patch clamp recordings were made at room temperature from cultured hippocampal neurons plated on coverslips secured with a platinum ring in a recording chamber (Open access chamber-1, Science Products GmbH, Hofheim, Germany) mounted on a fixed-stage upright microscope (BX51WI, Olympus, Hamburg, Germany). Differential interference contrast optics, infrared illumination and a CCD camera (PCO, Visitron Systems, Puchheim, Germany) connected to a contrast enhancement unit (Argus, Hamamatsu, Herrsching am Ammersee, Germany) were used to view neurons on a video monitor. Recordings were made with a Multiclamp 700A amplifier, digitized through a Digidata 1322A A/D converter and acquired using pClamp software (Molecular Devices, CA, USA). All membrane potentials have been corrected for the calculated junction potential of −11 mV (JPCalc program by Dr. Peter H. Barry). mEPSCs and whole-cell AMPA (10 μM, 6 ml/min, Biotrend) responses were recorded as known in the art except for the solutions and that a holding potential of −71 mV was used and both TTX (1 μM, Biotrend, Cologne, Germany) and gabazine (5 μM, Biotrend) were included in the ACSF. TTX was applied before gabazine to prevent the induction of action potential bursting. Access (range: 7-18 MU) and membrane resistance (see Table 1) were monitored before and after mEPSC recordings and data was rejected if changes greater than 20% occurred.
# Patch electrodes (3-4 MU) were made from borosilicate glass (1.5 mm, WPI, Sarasota, Fla., USA) and filled with intracellular solution (containing in mM: KCH3SO4, 145; NaCl, 8; HEPES, 10; K2-phosphocreatine, 10; Mgt-ATP, 4; Na3-GTP, 0.3; pH 7.35 with KOH). The extracellular solution was an artificial cerebrospinal fluid (ACSF, in mM: NaCl, 125; KCl, 3.5; MgCl2, 1.3; NaH2PO4, 1.2; CaCl2, 2.4; glucose, 25; NaHCO3, 26; gassed with 95% O2 and 5% CO2).
# [2] = system: VEGFD, VEGF, VEGFC and VEGFR3; test: qRT-PCR analysis of shRNA knock-down of VEGF family members; conditions: hippocampal neurons infected with rAAV
# Procedure: Total RNA was isolated at DIV10 to DIV13 from hippocampal primary neuron cultures or isolated brain tissues with Rneasy Mini Kit (Qiagen, Hilden, Germany) including an optional Dnase I treatment at room temperature for 15 min according to manufacturer's instructions (Qiagen). 1.2 μg of extracted RNA was reverse transcribed into first strand cDNA using High Capacity cDNA Reverse Transcription kit (Applied Biosystems, Foster City, Calif.). Quantitative reverse transcriptase PCR (qRT-PCR) was done on an ABI7300 thermal cycler using Universal qRT-PCR master mix with TaqMan Gene Expression Assays for the indicated genes (Applied Biosystems). The following TaqMan Gene Expression Assays were used in this study: Gusb (Mm00446953_m1), cFos (Mm00487425_m1), VEGFD (Mm00438965_m1), VEGFC (Mm01202432_m1), VEGF (Mm01281449_m1), VEGFR3 (Mm01292618_m1), beta-actin (Mm00607939_s1), beta-2 microglobulin (Mm00437762_m1), CBP (Mm01342435_m1), p38 MAPK alpha (Mm00442497_m1), p38 MAPK beta (Mm00440955_m1). Expression of target genes was normalized against the expression of Gusb as endogenous control gene. Data were derived from at least 5 independent experiments. For expression of shRNAs, an rAAV vector containing the U6 promoter for shRNA expression and a CaMKII promoter driving mCherry expression was used. Three different sequences were obtained from Open Biosystems ([…] 2 and […] 3), cloned and tested for silencing efficiency. […] As control, a scramble version of this sequence ([…] ID NO: 2) and the vector carrying only the mCherry ([…]) were used. Shp38alpha [NT] ID NO: 3), shp38beta [NT] ID NO: 4), […] ID NO: 5), […] ID NO: 6) and […] ID NO: 7; sequence obtained from Open Biosystems www.openbiosystems.com) were also cloned into the same vector. CBP expression level was knocked down using a pool of four short interfering RNAs (siRNAs) targeting mouse CBP (Accell siRNA SMARTpool; Thermo Scientific Dharmacon). The SMARTpool is a group of four siRNAs that have been screened to reduce a variety of potential off-target effects including the inclusion of miRNA (microRNA)-like seed motifs. Silencing of GAPDH was measured using Accell mouse GAPDH as a positive control, and as a negative control, a non-targeting Accell mouse siRNA pool was used. In addition, a fluorescently labeled non-targeting Accell mouse siRNA was also used to evaluate penetration efficiency in hippocampal neurons via immunocytochemistry. Briefly, 500 nM siRNAs were supplemented in the serum-free culturing medium at DIV8, and mRNA levels were analyzed at DIV13.
# VEGFD = test: qRT-PCR analysis of VEGFD expression in hippocampal neurons
# Procedure: Total RNA was isolated at DIV10 to DIV13 from hippocampal primary neuron cultures or isolated brain tissues with Rneasy Mini Kit (Qiagen, Hilden, Germany) including an optional Dnase I treatment at room temperature for 15 min according to manufacturer's instructions (Qiagen). 1.2 μg of extracted RNA was reverse transcribed into first strand cDNA using High Capacity cDNA Reverse Transcription kit (Applied Biosystems, Foster City, Calif.).
# Quantitative reverse transcriptase PCR (qRT-PCR) was done on an ABI7300 thermal cycler using Universal qRT-PCR master mix with TaqMan Gene Expression Assays for the indicated genes (Applied Biosystems). The following TaqMan Gene Expression Assays were used in this study: Gusb (Mm00446953_m1), cFos (Mm00487425_m1), VEGFD (Mm00438965_m1), VEGFC (Mm01202432_m1), VEGF (Mm01281449_m1), VEGFR3 (Mm01292618_m1), beta-actin (Mm00607939_s1), beta-2 microglobulin (Mm00437762_m1), CBP (Mm01342435_m1), p38 MAPK alpha (Mm00442497_m1), p38 MAPK beta (Mm00440955_m1). Expression of target genes was normalized against the expression of Gusb as endogenous control gene. Data were derived from at least 5 independent experiments.
molecule,measurement,setting,value
"C[S+]([O-])c1ccc(-c2nc(-c3ccncc3)c(-c3ccc(F)cc3)[nH]2)cc1 (stereo not drawn) [SB203580, reference compound]","Sholl analysis, SB203580 alone",hippocampal neurons,showed no difference compared to the respective untreated controls
same,effect on rVEGFD-induced rescue of dendrite length and complexity,hippocampal neurons,severely compromised the ability of rVEGFD to rescue the impairment of dendrite length and complexity
"shSCR: scramble version of the shVEGFD sequence (GTGCCAAGACGGGTAGTCA; SEQ ID NO: 2), control [reference compound]",AP induc thresh (current injection required to induce an action potential),[1]; infected neurons,116 ± 10 pA
same,AP thresh (membrane potential at which action potentials initiate),[1]; infected neurons,−48.4 ± 1.0 mV
same,Cm (membrane capacitance),[1]; infected neurons,102.4 ± 4.4 pF
same,Rm (membrane resistance),[1]; infected neurons,275 ± 15 MΩ
same,Vrest (resting membrane potential),[1]; infected neurons,−78.7 ± 1.7 mV
same,mEPSC τ decay,[1]; infected neurons,5.70 ± 0.12 ms
same,mEPSC τ rise,[1]; infected neurons,3.36 ± 0.07 ms
same,AP induc thresh (current injection required to induce an action potential),[1]; transfected neurons,125 ± 13 pA
same,AP thresh (membrane potential at which action potentials initiate),[1]; transfected neurons,−44.1 ± 1.6 mV
same,Cm (membrane capacitance),[1]; transfected neurons,88.6 ± 5.5 pF
same,Rm (membrane resistance),[1]; transfected neurons,291 ± 32 MΩ
same,Vrest (resting membrane potential),[1]; transfected neurons,−76.5 ± 2.3 mV
same,mEPSC τ decay,[1]; transfected neurons,6.06 ± 0.07 ms
same,mEPSC τ rise,[1]; transfected neurons,3.18 ± 0.14 ms
same,spine density (number of spines/20 μm),hippocampal neurons; transfected hippocampal neurons,6.17±0.56 spines/20 μm
shVEGFC: shRNA specific for VEGFC (GTTCATTCCATTATTAGAC; SEQ ID NO: 6) [reference compound],total dendritic length and dendritic complexity (Sholl analysis),hippocampal neurons,had no effect on dendrite length or complexity
same,mRNA levels of respective targets,[2],reduced mRNA levels of their respective targets
"C[C@]12N[C@H](Cc3ccccc31)c1ccccc12 [MK801, reference compound]",VEGFD expression (qRT-PCR),VEGFD,significantly reduced the expression of VEGFD mRNA
shp38α: shRNA specific for the alpha isoform of p38 MAPK (AAACACGAAAATGTGATTGGT; SEQ ID NO: 3) [reference compound],effect on rVEGFD-induced rescue of dendrite length and complexity,"hippocampal neurons; neurons expressing CaMBP4 (and CaMKIVK75E), rVEGFD 3 days",prevented the rVEGFD-induced rescue
shVEGF: shRNA specific for VEGF (ACCTCACCAAAGCCAGCAC; SEQ ID NO: 5) [reference compound],total dendritic length and dendritic complexity (Sholl analysis),hippocampal neurons,had no effect on dendrite length or complexity
same,mRNA levels of respective targets,[2],reduced mRNA levels of their respective targets
shVEGFR3: shRNA specific for VEGFR3 (CCCAGTATTGTGTGGTACAAA; SEQ ID NO: 7),total dendritic length and dendritic complexity (Sholl analysis),hippocampal neurons,changes in the dendritic structure that were virtually identical to those obtained in hippocampal neurons transfected with pAAV-shVEGFD
same,mRNA levels of respective targets,[2],reduced mRNA levels of their respective targets
"rVEGFC: recombinant mouse VEGFC (Biocat) (protein, UniProt P97953 108-223, looked up) Vascular endothelial growth …: AHYNTEILKSIDNEWRKTQCMPREVCIDVGKEFGAATNTFFKPPCVSVYRCGGCCNSEGLQCMNTSTGYLSKTLFEITVPLSQGPKPVTISFANHTSCRCMSKLDVYRQVHSIIRR",rescue of reduction in dendrite length and complexity caused by CaMBP4 or CaMKIVK75E,hippocampal neurons,neither recombinant VEGF (rVEGF) nor recombinant VEGFC (rVEGFC) was able to rescue
"VEGFD-HA: HA-tagged VEGFD expressed from rAAV plasmid or rAAV (protein, UniProt P97946 94-210, looked up, HA tag) Vascular endothelial growth …: FAATFYDTETLKVIDEEWQRTQCSPRETCVEVASELGKTTNTFFKPPCVNVFRCGGCCNEEGVMCMNTSTSYISKQLFEISVPLTSVPELVPVKIANHTGCKCLPTGPRHPYSIIRR",neuronal morphology,hippocampal neurons; neurons without nuclear calcium signaling blockade,no detectable effect on neuronal morphology
same,restoration of spine density in CaMBP4 or CaMKIVK75E expressing neurons,hippocampal neurons; rVEGFD 100 ng/ml 3 days or VEGFD-HA expression,failed to restore normal spine density
same,rescue of reduction in dendrite length and complexity caused by CaMBP4 or CaMKIVK75E,hippocampal neurons,rescued the reduction in dendrite length and complexity
"resiVEGFD-HA: HA-tagged VEGFD resistant to shVEGFD, expressed from plasmid (protein, UniProt P97946 94-210, looked up, HA tag; shRNA-resistant coding sequence, HA-tagged VEGFD resistant to shVEGFD, expressed from plasmid) Vascular endothelial growth …: FAATFYDTETLKVIDEEWQRTQCSPRETCVEVASELGKTTNTFFKPPCVNVFRCGGCCNEEGVMCMNTSTSYISKQLFEISVPLTSVPELVPVKIANHTGCKCLPTGPRHPYSIIRR",effect on reduction of dendrite length and complexity caused by shVEGFD,"hippocampal neurons; pAAV-shVEGFD transfected neurons, rVEGFD 100 ng/ml 3 days or co-transfection",rescued the reduction of dendrite length and complexity
